Results: ChEMBL document CHEMBL2010665, “Novel, druglike 1,7-disubstituted 2,3,4,5-tetrahydro-1H-benzo[b]azepine-based selective inhibitors of human neuronal nitric oxide synthase (nNOS)” (Bioorg Med Chem Lett, 2012)

Tests used:
Nitric oxide synthase 1 = Nitric oxide synthase 1 (Homo sapiens, UniProt P29475); test: Inhibition of human recombinant nNOS expressed in baculovirus infected insect sf9 cells assessed as conversion of [3H]-L-arginine into [3H]-L-citrulline by radiometric method
[1] = target: Nitric oxide synthase, inducible (Homo sapiens, UniProt P35228); test: Inhibition of human recombinant iNOS expressed in baculovirus infected insect sf9 cells assessed as conversion of [3H]-L-arginine into [3H]-L-citrulline by radiometric method
Chain of Nitric oxide synthase, inducible (Homo sapiens, UniProt P35228) (P35228 whole entry): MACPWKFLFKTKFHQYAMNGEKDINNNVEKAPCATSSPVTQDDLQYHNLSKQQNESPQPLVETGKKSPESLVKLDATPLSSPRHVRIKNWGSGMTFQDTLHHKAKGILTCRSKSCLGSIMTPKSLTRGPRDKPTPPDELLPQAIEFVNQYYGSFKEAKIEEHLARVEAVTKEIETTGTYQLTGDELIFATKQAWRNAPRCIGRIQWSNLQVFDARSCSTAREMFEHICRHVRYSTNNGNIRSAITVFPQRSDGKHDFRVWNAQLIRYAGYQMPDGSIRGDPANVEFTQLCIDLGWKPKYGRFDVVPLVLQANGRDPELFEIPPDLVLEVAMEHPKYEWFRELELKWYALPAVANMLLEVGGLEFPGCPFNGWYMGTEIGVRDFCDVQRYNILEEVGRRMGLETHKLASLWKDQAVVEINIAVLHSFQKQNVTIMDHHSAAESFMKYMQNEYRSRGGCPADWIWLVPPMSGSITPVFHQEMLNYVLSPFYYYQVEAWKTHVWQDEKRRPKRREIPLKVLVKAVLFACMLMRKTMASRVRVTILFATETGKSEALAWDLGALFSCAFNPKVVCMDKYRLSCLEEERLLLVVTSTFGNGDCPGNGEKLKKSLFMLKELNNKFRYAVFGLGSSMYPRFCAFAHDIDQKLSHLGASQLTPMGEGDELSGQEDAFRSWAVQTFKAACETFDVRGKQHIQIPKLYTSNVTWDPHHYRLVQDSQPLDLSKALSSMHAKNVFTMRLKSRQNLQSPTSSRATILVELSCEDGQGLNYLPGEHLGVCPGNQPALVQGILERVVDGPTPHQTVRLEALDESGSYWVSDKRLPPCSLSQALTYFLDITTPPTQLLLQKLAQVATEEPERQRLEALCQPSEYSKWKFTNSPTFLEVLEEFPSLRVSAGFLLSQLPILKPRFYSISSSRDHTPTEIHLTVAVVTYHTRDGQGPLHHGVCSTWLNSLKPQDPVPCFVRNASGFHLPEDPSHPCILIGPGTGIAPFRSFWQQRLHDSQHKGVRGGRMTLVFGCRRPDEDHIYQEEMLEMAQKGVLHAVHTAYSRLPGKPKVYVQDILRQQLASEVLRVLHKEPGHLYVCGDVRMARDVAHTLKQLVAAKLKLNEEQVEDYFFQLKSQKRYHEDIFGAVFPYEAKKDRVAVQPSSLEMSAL

Nitric oxide synthase 3 = target: T1, Nitric oxide synthase 3 (Homo sapiens, UniProt P29474); test: Inhibition of human recombinant eNOS expressed in baculovirus infected insect sf9 cells assessed as conversion of [3H]-L-arginine into [3H]-L-citrulline by radiometric method
T1 sequence (P29474 whole entry): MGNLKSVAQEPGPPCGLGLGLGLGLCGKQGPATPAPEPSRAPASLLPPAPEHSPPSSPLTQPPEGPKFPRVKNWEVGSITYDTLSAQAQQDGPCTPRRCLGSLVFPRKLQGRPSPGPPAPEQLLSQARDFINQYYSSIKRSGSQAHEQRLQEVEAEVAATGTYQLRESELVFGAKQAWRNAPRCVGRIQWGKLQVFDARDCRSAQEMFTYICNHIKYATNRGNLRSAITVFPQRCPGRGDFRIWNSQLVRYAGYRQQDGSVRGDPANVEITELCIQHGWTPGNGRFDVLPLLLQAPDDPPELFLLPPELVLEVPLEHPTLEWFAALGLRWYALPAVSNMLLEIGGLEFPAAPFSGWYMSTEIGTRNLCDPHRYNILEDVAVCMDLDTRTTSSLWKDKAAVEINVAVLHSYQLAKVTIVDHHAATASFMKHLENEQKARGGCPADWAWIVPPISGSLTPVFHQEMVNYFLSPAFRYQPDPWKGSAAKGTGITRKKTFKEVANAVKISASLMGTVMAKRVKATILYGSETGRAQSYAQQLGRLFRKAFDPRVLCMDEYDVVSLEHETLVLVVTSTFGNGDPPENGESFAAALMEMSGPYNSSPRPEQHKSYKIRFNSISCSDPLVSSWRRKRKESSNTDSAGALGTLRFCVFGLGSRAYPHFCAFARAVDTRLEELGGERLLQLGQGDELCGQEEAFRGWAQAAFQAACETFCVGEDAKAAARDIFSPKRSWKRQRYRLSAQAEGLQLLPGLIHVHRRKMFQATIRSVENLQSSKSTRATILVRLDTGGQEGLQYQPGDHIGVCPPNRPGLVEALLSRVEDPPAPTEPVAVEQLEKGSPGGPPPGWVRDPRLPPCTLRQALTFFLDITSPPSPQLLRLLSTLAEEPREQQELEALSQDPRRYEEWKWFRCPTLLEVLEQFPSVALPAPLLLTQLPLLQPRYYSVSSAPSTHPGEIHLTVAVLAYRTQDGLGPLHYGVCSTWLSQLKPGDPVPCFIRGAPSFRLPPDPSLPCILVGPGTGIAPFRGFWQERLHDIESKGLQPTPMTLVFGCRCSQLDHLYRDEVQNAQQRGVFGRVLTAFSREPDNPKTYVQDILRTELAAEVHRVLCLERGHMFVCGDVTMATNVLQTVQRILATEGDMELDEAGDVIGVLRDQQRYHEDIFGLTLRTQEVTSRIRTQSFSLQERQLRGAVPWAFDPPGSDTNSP

[2] = target: Voltage-gated inwardly rectifying potassium channel KCNH2 (Homo sapiens, UniProt Q12809); test: Inhibition of human Erg expressed in HEK293 cells up to 30 uM by patch clamp assay; format: cell-based
Chain of Voltage-gated inwardly rectifying potassium channel KCNH2 (Q12809 whole entry): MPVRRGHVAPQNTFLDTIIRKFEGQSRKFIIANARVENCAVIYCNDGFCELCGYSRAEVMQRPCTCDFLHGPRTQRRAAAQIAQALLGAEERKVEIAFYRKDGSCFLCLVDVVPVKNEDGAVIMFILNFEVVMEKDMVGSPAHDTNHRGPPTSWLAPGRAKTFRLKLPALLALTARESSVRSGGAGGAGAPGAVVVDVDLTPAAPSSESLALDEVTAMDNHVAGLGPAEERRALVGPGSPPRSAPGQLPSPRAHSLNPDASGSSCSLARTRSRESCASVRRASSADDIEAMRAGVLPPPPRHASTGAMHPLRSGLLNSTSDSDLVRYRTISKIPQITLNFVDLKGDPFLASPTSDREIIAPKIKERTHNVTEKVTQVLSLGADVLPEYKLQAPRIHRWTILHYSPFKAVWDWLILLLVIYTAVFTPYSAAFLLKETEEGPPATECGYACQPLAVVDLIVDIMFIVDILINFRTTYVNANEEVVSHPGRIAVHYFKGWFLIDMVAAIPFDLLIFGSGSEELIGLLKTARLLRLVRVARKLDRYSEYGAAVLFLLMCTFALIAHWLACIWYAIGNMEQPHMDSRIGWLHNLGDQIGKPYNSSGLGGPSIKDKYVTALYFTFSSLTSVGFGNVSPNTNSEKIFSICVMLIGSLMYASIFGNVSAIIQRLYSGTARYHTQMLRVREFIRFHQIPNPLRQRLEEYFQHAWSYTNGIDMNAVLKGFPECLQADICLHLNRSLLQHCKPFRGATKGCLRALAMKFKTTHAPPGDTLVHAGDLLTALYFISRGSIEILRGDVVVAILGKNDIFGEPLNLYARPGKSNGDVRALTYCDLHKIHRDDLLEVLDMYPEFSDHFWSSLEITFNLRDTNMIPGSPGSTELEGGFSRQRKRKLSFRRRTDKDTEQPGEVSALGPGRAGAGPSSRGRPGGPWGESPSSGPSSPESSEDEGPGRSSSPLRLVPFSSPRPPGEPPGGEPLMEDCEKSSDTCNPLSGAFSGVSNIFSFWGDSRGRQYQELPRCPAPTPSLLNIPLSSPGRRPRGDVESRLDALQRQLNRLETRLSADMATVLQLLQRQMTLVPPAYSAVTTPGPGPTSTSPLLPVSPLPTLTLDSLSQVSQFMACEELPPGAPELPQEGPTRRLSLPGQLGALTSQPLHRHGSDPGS

[3] = target: Nitric oxide synthase, inducible (Rattus norvegicus, UniProt Q06518); test: Inhibition of rat iNOS
Chain of Nitric oxide synthase, inducible (Rattus norvegicus, UniProt Q06518) (Q06518 whole entry): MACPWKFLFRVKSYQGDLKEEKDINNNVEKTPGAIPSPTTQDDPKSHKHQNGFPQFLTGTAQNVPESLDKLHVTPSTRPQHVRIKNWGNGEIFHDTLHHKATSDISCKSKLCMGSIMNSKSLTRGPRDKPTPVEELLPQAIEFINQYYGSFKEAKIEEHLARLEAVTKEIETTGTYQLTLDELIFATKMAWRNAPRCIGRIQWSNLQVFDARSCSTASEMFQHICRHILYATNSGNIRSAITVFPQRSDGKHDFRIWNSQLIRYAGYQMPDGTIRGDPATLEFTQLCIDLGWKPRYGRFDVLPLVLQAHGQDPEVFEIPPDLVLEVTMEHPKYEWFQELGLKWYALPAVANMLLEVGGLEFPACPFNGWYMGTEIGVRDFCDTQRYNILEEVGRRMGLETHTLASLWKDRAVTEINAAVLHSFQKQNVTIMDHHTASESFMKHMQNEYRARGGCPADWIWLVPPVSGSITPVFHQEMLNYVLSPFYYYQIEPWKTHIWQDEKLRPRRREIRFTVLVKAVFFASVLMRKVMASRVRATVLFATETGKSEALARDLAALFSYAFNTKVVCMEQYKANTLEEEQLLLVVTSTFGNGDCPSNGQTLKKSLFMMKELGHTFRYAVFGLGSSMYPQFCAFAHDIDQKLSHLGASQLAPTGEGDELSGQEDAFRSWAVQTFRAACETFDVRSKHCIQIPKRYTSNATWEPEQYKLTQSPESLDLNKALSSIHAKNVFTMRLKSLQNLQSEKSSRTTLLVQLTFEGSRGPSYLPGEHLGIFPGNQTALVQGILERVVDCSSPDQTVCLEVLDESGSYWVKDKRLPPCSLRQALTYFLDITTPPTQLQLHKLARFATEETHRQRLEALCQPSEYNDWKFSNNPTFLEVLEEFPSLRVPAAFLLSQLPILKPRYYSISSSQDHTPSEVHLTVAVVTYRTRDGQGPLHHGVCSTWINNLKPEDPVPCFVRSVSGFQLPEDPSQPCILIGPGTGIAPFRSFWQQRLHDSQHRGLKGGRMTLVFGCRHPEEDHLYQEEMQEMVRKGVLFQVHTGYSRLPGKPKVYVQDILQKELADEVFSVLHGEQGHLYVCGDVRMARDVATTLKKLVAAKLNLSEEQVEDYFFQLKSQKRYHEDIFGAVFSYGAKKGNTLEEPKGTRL

Chain of Nitric oxide synthase 1 (P29475 whole entry): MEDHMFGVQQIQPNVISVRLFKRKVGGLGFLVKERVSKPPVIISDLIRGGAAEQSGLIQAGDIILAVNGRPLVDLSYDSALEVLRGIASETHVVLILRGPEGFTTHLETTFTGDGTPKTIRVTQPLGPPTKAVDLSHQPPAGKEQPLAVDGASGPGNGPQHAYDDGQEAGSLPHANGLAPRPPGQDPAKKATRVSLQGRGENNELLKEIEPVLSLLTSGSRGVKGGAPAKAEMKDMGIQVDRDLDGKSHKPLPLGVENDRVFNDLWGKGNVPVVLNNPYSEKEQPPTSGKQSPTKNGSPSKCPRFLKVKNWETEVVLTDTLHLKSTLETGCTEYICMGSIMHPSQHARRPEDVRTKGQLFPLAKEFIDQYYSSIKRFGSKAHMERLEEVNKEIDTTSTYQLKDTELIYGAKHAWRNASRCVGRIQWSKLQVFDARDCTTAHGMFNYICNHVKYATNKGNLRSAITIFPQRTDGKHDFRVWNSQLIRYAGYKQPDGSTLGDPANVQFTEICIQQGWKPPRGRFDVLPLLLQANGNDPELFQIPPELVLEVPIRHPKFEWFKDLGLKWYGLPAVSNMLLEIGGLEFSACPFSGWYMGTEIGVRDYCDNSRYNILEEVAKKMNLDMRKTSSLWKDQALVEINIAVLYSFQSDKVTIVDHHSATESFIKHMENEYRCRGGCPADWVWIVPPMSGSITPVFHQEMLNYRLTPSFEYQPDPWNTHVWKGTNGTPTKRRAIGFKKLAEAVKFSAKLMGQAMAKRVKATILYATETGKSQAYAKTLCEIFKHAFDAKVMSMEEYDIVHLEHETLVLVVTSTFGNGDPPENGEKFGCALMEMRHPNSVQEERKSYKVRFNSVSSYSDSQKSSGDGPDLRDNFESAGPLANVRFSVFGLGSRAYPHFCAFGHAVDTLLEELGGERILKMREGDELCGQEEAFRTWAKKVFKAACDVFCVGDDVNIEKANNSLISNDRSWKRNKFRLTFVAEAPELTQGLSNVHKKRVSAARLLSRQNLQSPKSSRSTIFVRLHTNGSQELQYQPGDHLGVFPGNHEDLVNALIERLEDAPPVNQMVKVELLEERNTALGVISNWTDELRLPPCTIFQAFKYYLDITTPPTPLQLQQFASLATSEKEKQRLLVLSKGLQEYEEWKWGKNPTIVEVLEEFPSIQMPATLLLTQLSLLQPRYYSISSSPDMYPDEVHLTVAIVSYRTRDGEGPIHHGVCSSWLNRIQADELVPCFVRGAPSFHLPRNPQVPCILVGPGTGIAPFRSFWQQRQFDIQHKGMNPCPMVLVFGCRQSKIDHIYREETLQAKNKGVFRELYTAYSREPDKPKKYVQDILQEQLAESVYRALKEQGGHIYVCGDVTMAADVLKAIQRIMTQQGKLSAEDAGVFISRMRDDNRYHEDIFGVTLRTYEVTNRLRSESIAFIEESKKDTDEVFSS

Row | Structure (SMILES) | IC50 (Nitric oxide synthase 1) | IC50 [1] | IC50 (Nitric oxide synthase 3) | IC50 [3] | inhibition (INH) [2]
1 | N=C(Nc1ccc2c(c1)CCCCN2C1CCNCC1)c1cccs1 | 2380 nM | – | – | – | –
2 | CN(C)CCN1CCCCc2cc(NC(=N)c3cccs3)ccc21.Cl.Cl | – | 1500 nM | – | > 100000 nM | Not Active
3 | CNCCN1CCCCc2cc(NC(=N)c3cccs3)ccc21 | 100 nM | > 100000 nM | – | – | –
4 | N=C(Nc1ccc2c(c1)CCCCN2C1CCNC1)c1cccs1 (racemic) | – | 13500 nM | – | – | –
5 | CN1CCC(N2CCCCc3cc(NC(=N)c4cccs4)ccc32)C1 (racemic) | – | > 100000 nM | – | – | –

The next lines start with results.

Row | IC50 (Nitric oxide synthase 1) | IC50 [1] | IC50 (Nitric oxide synthase 3) | IC50 [3] | Structure (SMILES) | inhibition (INH) [2]
6 | 160 nM | 16900 nM | 82200 nM | – | N=C(Nc1ccc2c(c1)CCCCN2CCN1CCCC1)c1cccs1 | –
7 | 1960 nM | – | – | – | N=C(Nc1ccc2c(c1)CCCCN2CCN1CCCCC1)c1cccs1 | –
8 | 1860 nM | > 100000 nM | – | – | CN1CCCC1CCN1CCCCc2cc(NC(=N)c3cccs3)ccc21 (racemic) | –
